Results: patent publication US9828369B2, “Isoquinoline derivatives useful as inhibitors of diacylglyceride O-acyltransferase 2” (Merck Sharp & Dohme Corp., priority 2014, dated 2017)
Like-named read-outs stand apart in the source and are kept apart here.

Biological target: hDGAT2 (Homo sapiens (Human), UniProt Q96PD7)
Assay: DGAT2 enzymatic activity assay (triolein formation, LC/MS/MS)
[1] = read-out: IC50 values for inhibition of DGAT2, membrane prep of Sf-9 cells expressing hDGAT2, 25 μM diolein, 10 μM oleoyl-CoA, room temperature, triolein by LC/MS/MS

Chain of hDGAT2 (Q96PD7 whole entry): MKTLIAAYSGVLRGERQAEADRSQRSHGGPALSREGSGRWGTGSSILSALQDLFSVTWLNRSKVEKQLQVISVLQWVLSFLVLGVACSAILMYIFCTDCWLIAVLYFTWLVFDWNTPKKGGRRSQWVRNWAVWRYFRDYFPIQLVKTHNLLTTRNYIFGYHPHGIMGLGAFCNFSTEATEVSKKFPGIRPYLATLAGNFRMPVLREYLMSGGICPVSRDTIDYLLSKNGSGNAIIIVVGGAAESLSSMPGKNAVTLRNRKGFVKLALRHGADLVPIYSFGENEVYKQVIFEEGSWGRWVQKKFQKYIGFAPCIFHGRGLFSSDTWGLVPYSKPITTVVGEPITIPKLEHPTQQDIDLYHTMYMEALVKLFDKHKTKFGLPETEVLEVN

Compound | IC50 [1] | IC50
CCc1cc(C(=O)NCc2ccc(-c3cccc(OC)c3)c3ccncc23)n(C)n1 [Example 35, 3-ethyl-N-((5-(3-methoxyphenyl)isoquinolin-8-yl)methyl)-1-methyl-1H-pyrazole-5-carboxamide] | 3.44 µM | 
COc1cccc(-c2ccc(CNC(=O)c3ccc4c(c3)OCCO4)c3cnccc23)c1 [Example 36, N-((5-(3-methoxyphenyl)isoquinolin-8-yl)methyl)-2,3-dihydrobenzo[b][1,4]dioxine-6-carboxamide] | 3.01 µM | 
COc1cccc(-c2ccc(CNC(=O)c3cnco3)c3cnccc23)c1 [Example 37, N-((5-(3-methoxyphenyl)isoquinolin-8-yl)methyl)oxazole-5-carboxamide] | 1.27 µM | 
COc1cccc(-c2ccc(CNC(=O)c3ncco3)c3cnccc23)c1 [Example 38, N-((5-(3-methoxyphenyl)isoquinolin-8-yl)methyl)oxazole-2-carboxamide] | 3.2 µM | 
COc1cccc(-c2ccc(CNC(=O)c3noc4c3CCCC4)c3cnccc23)c1 [Example 39, N-((5-(3-methoxyphenyl)isoquinolin-8-yl)methyl)-4,5,6,7-tetrahydrobenzo[d]isoxazole-3-carboxamide] | 9.39 µM | 
COc1cccc(-c2ccc(CNC(=O)c3ccc4nccnc4c3)c3cnccc23)c1 [Example 40, N-((5-(3-methoxyphenyl)isoquinolin-8-yl)methyl)quinoxaline-6-carboxamide] | 6 µM | 
COc1cccc(-c2ccc(CNC(=O)C3CCCN(c4ccccn4)C3)c3cnccc23)c1 (stereo not shown) [Example 41, N-((5-(3-methoxyphenyl)isoquinolin-8-yl)methyl)-1-(pyridin-2-yl)piperidine-3-carboxamide] | 7.78 µM | 
COc1cccc(-c2ccc(CNC(=O)c3nn(C)c(=O)c4ccccc34)c3cnccc23)c1 [Example 43, N-((5-(3-methoxyphenyl)isoquinolin-8-yl)methyl)-3-methyl-4-oxo-3,4-dihydrophthalazine-1-carboxamide] | 1.57 µM | 
CCCc1cc(C(=O)NCc2ccc(-c3cccc(OC)c3)c3ccncc23)n(C)n1 [Example 44, N-((5-(3-methoxyphenyl)isoquinolin-8-yl)methyl)-1-methyl-3-propyl-1H-pyrazole-5-carboxamide] | 1.43 µM | 
COc1cccc(-c2ccc(CNC(=O)Cc3ccccc3Oc3ccccc3)c3cnccc23)c1 [Example 55, N-((5-(3-methoxyphenyl)isoquinolin-8-yl)methyl)-2-(2-phenoxyphenyl)acetamide] | 0.306 µM | 
COc1cccc(-c2ccc(CNC(=O)c3ccc(-n4cccn4)cc3)c3cnccc23)c1 [Example 65, N-((5-(3-methoxyphenyl)isoquinolin-8-yl)methyl)-4-(1H-pyrazol-1-yl)benzamide] |  | 2 µM
COc1cccc(-c2ccc(CNC(=O)c3cn(-c4ccccc4)nc3-c3ccccc3)c3cnccc23)c1 [Example 66, N-((5-(3-methoxyphenyl)isoquinolin-8-yl)methyl)-1,3-diphenyl-1H-pyrazole-4-carboxamide] | 0.479 µM | 
COc1cccc(-c2ccc(CNC(=O)c3cccc(-n4nc(C)cc4C)c3)c3cnccc23)c1 [Example 68, 3-(3,5-dimethyl-1H-pyrazol-1-yl)-N-((5-(3-methoxyphenyl)isoquinolin-8-yl)methyl)benzamide] | 1.65 µM | 
COc1cccc(-c2ccc(CNC(=O)c3ccnc(-n4cnnn4)c3)c3cnccc23)c1 [Example 69, N-((5-(3-methoxyphenyl)isoquinolin-8-yl)methyl)-2-(1H-tetrazol-1-yl)isonicotinamide] | 3.41 µM | 
COc1cccc(-c2ccc(CNC(=O)c3coc(-c4ccccc4)n3)c3cnccc23)c1 [Example 70, N-((5-(3-methoxyphenyl)isoquinolin-8-yl)methyl)-2-phenyloxazole-4-carboxamide] | 2.33 µM | 
COc1cccc(-c2ccc(CNC(=O)c3noc(-c4ccccc4)n3)c3cnccc23)c1 [Example 72, N-((5-(3-methoxyphenyl)isoquinolin-8-yl)methyl)-5-phenyl-1,2,4-oxadiazole-3-carboxamide] | 3.89 µM | 
COc1cccc(-c2ccc(CNC(=O)c3c[nH]c(-c4ccccc4)n3)c3cnccc23)c1 [Example 73, N-((5-(3-methoxyphenyl)isoquinolin-8-yl)methyl)-2-phenyl-1H-imidazole-4-carboxamide] | 5.84 µM | 
COc1cccc(-c2ccc(CNC(=O)c3ccn(-c4ccccc4)n3)c3cnccc23)c1 [Example 74, N-((5-(3-methoxyphenyl)isoquinolin-8-yl)methyl)-1-phenyl-1H-pyrazole-3-carboxamide] | 1.27 µM | 
COc1cccc(-c2ccc(CNC(=O)c3cnc(-c4ccccc4)cn3)c3cnccc23)c1 [Example 75, N-((5-(3-methoxyphenyl)isoquinolin-8-yl)methyl)-5-phenylpyrazine-2-carboxamide] | 9.05 µM | 
COc1cccc(-c2ccc(CNC(=O)c3ccncc3-c3ccccc3)c3cnccc23)c1 [Example 77, N-((5-(3-methoxyphenyl)isoquinolin-8-yl)methyl)-3-phenylisonicotinamide] | 1.22 µM | 

Further lines, results first:

IC50 [1] | IC50 | Compound
0.745 µM |  | COc1cccc(-c2ccc(CNC(=O)c3cccc4ncccc34)c3cnccc23)c1 [Example 45, N-((5-(3-methoxyphenyl)isoquinolin-8-yl)methyl)quinoline-5-carboxamide]
0.317 µM |  | COc1cccc(-c2ccc(CNC(=O)Cc3ccc(C(F)(F)F)cc3)c3cnccc23)c1 [Example 46, N-((5-(3-methoxyphenyl)isoquinolin-8-yl)methyl)-2-(4-(trifluoromethyl)phenyl)acetamide]
1.4 µM |  | COc1cccc(-c2ccc(CNC(=O)Cc3ccc(Cl)cc3)c3cnccc23)c1 [Example 47, 2-(4-chlorophenyl)-N-((5-(3-methoxyphenyl)isoquinolin-8-yl)methyl)acetamide]
0.291 µM |  | COc1cccc(-c2ccc(CNC(=O)Cc3cccc(C(F)(F)F)c3)c3cnccc23)c1 [Example 48, N-((5-(3-methoxyphenyl)isoquinolin-8-yl)methyl)-2-(3-(trifluoromethyl)phenyl)acetamide]
0.993 µM |  | COc1cccc(-c2ccc(CNC(=O)Cc3ccccc3F)c3cnccc23)c1 [Example 49, 2-(2-fluorophenyl)-N-((5-(3-methoxyphenyl)isoquinolin-8-yl)methyl)acetamide]
1.75 µM |  | COc1cccc(-c2ccc(CNC(=O)Cc3ccccc3C(F)(F)F)c3cnccc23)c1 [Example 51, N-((5-(3-methoxyphenyl)isoquinolin-8-yl)methyl)-2-(2-(trifluoromethyl)phenyl)acetamide]
3.71 µM |  | COc1cccc(-c2ccc(CNC(=O)Cc3cccc(F)c3)c3cnccc23)c1 [Example 52, 2-(3-fluorophenyl)-N-((5-(3-methoxyphenyl)isoquinolin-8-yl)methyl)acetamide]
2.16 µM |  | COc1cccc(-c2ccc(CNC(=O)Cc3ccc(Oc4ccccc4)cc3)c3cnccc23)c1 [Example 53, N-((5-(3-methoxyphenyl)isoquinolin-8-yl)methyl)-2-(4-phenoxyphenyl)acetamide]
2.76 µM |  | COc1cccc(-c2ccc(CNC(=O)Cc3cccc(Cl)c3)c3cnccc23)c1 [Example 54, 2-(3-chlorophenyl)-N-((5-(3-methoxyphenyl)isoquinolin-8-yl)methyl)acetamide]
1.64 µM |  | COc1cccc(-c2ccc(CNC(=O)Cc3cccc(S(C)(=O)=O)c3)c3cnccc23)c1 [Example 56, N-((5-(3-methoxyphenyl)isoquinolin-8-yl)methyl)-2-(3-(methylsulfonyl)phenyl)acetamide]
4.45 µM |  | COc1cccc(-c2ccc(CNC(=O)Cc3ccc(OC(F)(F)F)cc3)c3cnccc23)c1 [Example 57, N-((5-(3-methoxyphenyl)isoquinolin-8-yl)methyl)-2-(4-(trifluoromethoxy)phenyl)acetamide]
7.29 µM |  | COc1cccc(-c2ccc(CNC(=O)Cc3ccc(F)c(F)c3F)c3cnccc23)c1 [Example 58, N-((5-(3-methoxyphenyl)isoquinolin-8-yl)methyl)-2-(2,3,4-trifluorophenyl)acetamide]
0.55 µM |  | COc1cccc(-c2ccc(CNC(=O)Cc3cc(F)c(F)cc3F)c3cnccc23)c1 [Example 59, N-((5-(3-methoxyphenyl)isoquinolin-8-yl)methyl)-2-(2,4,5-trifluorophenyl)acetamide]
2.14 µM |  | COc1cccc(-c2ccc(CNC(=O)Cc3cc(F)c(F)c(F)c3)c3cnccc23)c1 [Example 60, N-((5-(3-methoxyphenyl)isoquinolin-8-yl)methyl)-2-(3,4,5-trifluorophenyl)acetamide]
0.759 µM |  | COc1cccc(-c2ccc(CNC(=O)Cc3ccccc3OC(F)(F)F)c3cnccc23)c1 [Example 61, N-((5-(3-methoxyphenyl)isoquinolin-8-yl)methyl)-2-(2-(trifluoromethoxy)phenyl)acetamide]
0.602 µM |  | COc1cccc(-c2ccc(CNC(=O)Cc3cccc(OC(F)(F)F)c3)c3cnccc23)c1 [Example 62, N-((5-(3-methoxyphenyl)isoquinolin-8-yl)methyl)-2-(3-(trifluoromethoxy)phenyl)acetamide]
3.05 µM |  | COc1cccc(-c2ccc(CNC(=O)Cc3ccc4c(c3)OCCO4)c3cnccc23)c1 [Example 63, 2-(2,3-dihydrobenzo[b][1,4]dioxin-6-yl)-N-((5-(3-methoxyphenyl)isoquinolin-8-yl)methyl)acetamide]
0.609 µM |  | COc1cccc(-c2ccc(CNC(=O)Cc3csc(-c4ccc(F)cc4)n3)c3cnccc23)c1 [Example 64, 2-(2-(4-fluorophenyl)thiazol-4-yl)-N-((5-(3-methoxyphenyl)isoquinolin-8-yl)methyl)acetamide]
1.95 µM |  | COc1cccc(-c2ccc(CNC(=O)c3ccc(N4CCCC4=O)cc3)c3cnccc23)c1 [Example 67, N-((5-(3-methoxyphenyl)isoquinolin-8-yl)methyl)-4-(2-oxopyrrolidin-1-yl)benzamide]
4.46 µM |  | COc1cccc(-c2ccc(CNC(=O)c3ccc(-c4ccon4)cc3)c3cnccc23)c1 [Example 76, 4-(isoxazol-3-yl)-N-((5-(3-methoxyphenyl)isoquinolin-8-yl)methyl)benzamide]
